Data from patent publication US7803757B2, “Peptides based on the sequence of human lactoferrin and their use” (PharmaSurgics in Sweden AB, priority 1998, dated 2010).
Bridge positions count the residues as written; N and C are the ends. Square brackets hold non-standard residues; d marks the D form. Ends that are not written are not given here. * marks the point of attachment. Nle = CCCC[C@H](N)C(=O)O; Acm = CC(=O)NC*

How the values were obtained:
Type in all cases: cell-based
E. coli O14 [1] = assay: bactericidal activity against E. coli O14, comparison with EP-A-0 629 347 peptides (Example 7)
Method: (§1) In this example an in vitro test was performed to compare the bactericidal and fungicidal activity of the peptides according to the invention with peptides described in EP-A-0 629 347. The peptide according to the invention used was peptide 4, and the peptides according to EP-A-0 629 347 called Morinaga 10, Morinaga 11, Morinaga 12, and Morinaga 13.
(§2) The peptides were incubated with E. coli O14 and Candida albicans. Two concentrations of C. albicans yeast cells were tested, 5·10^6 and 5·10^3 per ml. Different concentrations of the peptides were tested.
(§3) After the incubation, samples were taken for bacterial plating. Serial dilutions of tenfold steps were used in the experiments marked with I in table 5 and of twofold steps in the experiments marked with II.

Candida albicans = assay: fungicidal activity against Candida albicans, comparison with EP-A-0 629 347 peptides (Example 7); conditions: C. albicans, I (tenfold steps)
Method: as §1, §2, §3

C. albicans [2] = assay: MMC99% of modified peptides, C. albicans (Example 26); conditions: BHI diluted 1/100, pH approximately 6.7-6.9 (Table 22)
Method: (§4) In the examples, the minimal microbicidal concentrations (MMC) and minimal inhibitory concentrations (MIC) were determined as follows, unless otherwise specified in the examples. Bacterial or fungal strains were cultured in BHI medium over night at 37° C. A volume of the culture was transferred to a new tube with BHI and incubated for two more hours. Thereafter the cells were spun down and the pellet was suspended in BHI medium diluted 1/100 (1% BHI). The concentration of bacterial or fungal cells was spectrophotometrically determined at 650 nm. The microbial concentrations were also determined by viable counts. Peptides serially diluted in 1% BHI by twofold or tenfold steps were added in triplicate to the wells of a microtiterplate (200 μl per well). The bacterial or fungal cell solutions were added in 10 μl volumes to give a final concentration of approximately 1-5×10^5 cells per ml in the well. The microplate was incubated at 37° C. in a humid chamber for two hours. Thereafter 5 μl was taken from each well and added as a drop onto a blood agar plate and incubated over night at 37° C. The microplate was incubated for another 20 hours at 37° C. and thereafter analysed spectrophotometrically at 650 nm in a microplate reader (Emax, Molecular Devices, USA). The concentration of peptide causing a 99% reduction of the inoculum after 2 hours of incubation was defined as the MMC99%. The MIC value was defined as the concentration giving no increase in the absorbance value above the background level after 20 hours of incubation.
(§5) In this example the fungicidal, and bactericidal effects of the different peptides obtained in example 22 were studied. C. albicans, E. coli and S. aureus, respectively, were incubated in BHI medium diluted 1/100, with a pH of approximately 6.7-6.9. The concentration of each peptide needed to kill 99% of the microorganisms (MMC99%) was determined.

E. coli [3] = assay: MMC99% of modified peptides, E. coli (Example 26); conditions: BHI diluted 1/100, pH approximately 6.7-6.9 (Table 22)
Method: as §4, §5

S. aureus [4] = assay: MMC99% of modified peptides, S. aureus (Example 26); conditions: BHI diluted 1/100, pH approximately 6.7-6.9 (Table 22)
Method: as §4, §5

E. coli O6K5 = assay: microbicidal activity MMC99%, E. coli O6K5 (Example 28); conditions: E. coli O6K5 (Table 24)
Method: as §4
(§6) In this example the microbicidal activity of eight of the peptides according to the invention was studied, and tested against E. coli O6K5 and C. albicans.
(§7) The concentration of each peptide needed to kill 99% of the microorganisms (MMC99%) was determined.

C. albicans [5] = assay: microbicidal activity MMC99%, C. albicans (Example 28); conditions: C. albicans (Table 24)
Method: as §4, §6, §7

[6] = system: Candida albicans ATCC 64549; assay: fungicidal and growth inhibitory activity, Candida albicans ATCC 64549 (Example 8); conditions: for Concentration of agent for 100% killing: C. albicans ATCC 64549 1·10^5/ml, 2 hours 37° C., diluted BHI; for Concentration of agent for inhibition of growth: C. albicans ATCC 64549, spectrophotometrically after 20 hours
Method: Candida albicans ATCC 64549 (1·10^5/ml) was incubated in the presence of the peptides during 2 hours at 37° C. in diluted growth medium (BHI, twofold serial dilutions starting with 50 μg/ml). The fungicidal activity was measured by culturing 5 μl from each incubation well on Saboroud agar plates.
The inhibition of growth was measured spectrophotometrically after 20 hours of incubation.

E. coli O14 [7] = assay: bactericidal and growth inhibitory activity, E. coli O14 (Example 9); conditions: for Concentration of agent for 100% killing: E. coli O14, 2 hours; for Concentration of agent for inhibition of growth: E. coli O14, spectrophotometrically after 20 hours
Method: E. coli O14 was incubated as described above in the presence of the peptides during 2 hours. The bactericidal activity was measured in the same way as described above.
The inhibition of growth was measured spectrophotometrically after incubation during 20 hours.

C. albicans [8] = assay: MMC99% of modified peptides, C. albicans (Example 25); conditions: BHI diluted 1/100, pH approximately 6.7-6.9 (Table 21)
Method: as §4
(§8) In this example the fungicidal, and bactericidal effects of the different peptides obtained in examples 18-21 were studied. C. albicans, E. coli and S. aureus, respectively, were incubated in BHI medium diluted 1/100, with a pH of approximately 6.7-6.9. The concentration of each peptide needed to kill 99% of the microorganisms (MMC99%) was determined.

E. coli [9] = assay: MMC99% of modified peptides, E. coli (Example 25); conditions: BHI diluted 1/100, pH approximately 6.7-6.9 (Table 21)
Method: as §4, §8

S. aureus [10] = assay: MMC99% of modified peptides, S. aureus (Example 25); conditions: BHI diluted 1/100, pH approximately 6.7-6.9 (Table 21)
Method: as §4, §8

C. albicans (ATCC64549) = system: C. albicans (ATCC64549)
Method: as §4
(§9) C. albicans (ATCC64549) and E. coli O6, respectively, were incubated with the different peptides. The experiments were performed with 1, 10, 25 and 100 μg/ml of peptide.

E. coli O6 = system: E. coli O6
Method: as §4, §9

[11] = system: C. albicans yeast cells (ATCC64549); assay: killing and growth inhibition of C. albicans at pH 4.5 (Example 11); design: key to C. albicans inhibition (OD650): + = no increase in OD650 is seen; − = OD650 continues to increase; conditions: pH 4.5, 1% BHI, 25 μg/ml of the peptide
Method: C. albicans yeast cells (ATCC64549) were incubated for 2 hours at pH 4.5 in BHI medium diluted to 1% of the original concentration containing 25 µg/ml of the peptide. Thereafter the fungal solutions were cultured on blood agar plates. OD650 was measured after incubation during an additional 18 hours. The fungicidal effect of the peptides on C. albicans was determined as the ability of the peptide to kill 100% and 99%, respectively, of the fungus, while the growth inhibitory effect was determined by measuring the OD650. An inhibitory effect existed when no increase in OD650 was recorded.

E. faecalis = assay: killing of bacteria at fixed peptide concentration, E. faecalis (Example 12); conditions: peptide 25 μg/ml
Method: (§10) In this example, the peptides according to the invention were used to study the effect on the killing of different bacteria.
(§11) The peptides were used at a concentration of 25 μg/ml.

S. epidermis = assay: killing of bacteria at fixed peptide concentration, S. epidermis (Example 12); conditions: peptide 25 μg/ml
Method: as §10, §11

S. aureus [12] = assay: killing of bacteria at fixed peptide concentration, S. aureus (Example 12); conditions: peptide 25 μg/ml
Method: as §10, §11

K. pneumoniae = assay: killing of bacteria at fixed peptide concentration, K. pneumoniae (Example 12); conditions: peptide 25 μg/ml
Method: as §10, §11

P. aeruginosa = assay: killing of bacteria at fixed peptide concentration, P. aeruginosa (Example 12); conditions: peptide 25 μg/ml
Method: as §10, §11

[13] = E. coli O14, I: serial dilutions of tenfold steps

Q-W-Q-R [Morinaga 12]
Concentration of agent for 100% killing (E. coli O14 [1]; [13]): >500 µg/mL
Concentration of agent for 100% killing (Candida albicans; 5 · 10^3 yeast cells per ml): >2000 µg/mL
Concentration of agent for 100% killing (Candida albicans; 5 · 10^6 yeast cells per ml): >2000 µg/mL

W-Q-R [Morinaga 13]
Concentration of agent for 100% killing (E. coli O14 [1]; [13]): >500 µg/mL
Concentration of agent for 100% killing (Candida albicans; 5 · 10^3 yeast cells per ml): >2000 µg/mL
Concentration of agent for 100% killing (Candida albicans; 5 · 10^6 yeast cells per ml): >2000 µg/mL

C-F-A-W-K-R-N-M-R-K-V-R (CFAWKRNMRKVR) [SEQ. ID. NO. 93]
MMC99% (C. albicans [2]): 12
MMC99% (E. coli [3]): 6
MMC99% (S. aureus [4]): 6
MMC99% (E. coli O6K5): 5
MMC99% (C. albicans [5]): 5

C-F-A-W-Q-R-A-M-R-K-V-R (CFAWQRAMRKVR) [SEQ. ID. NO. 94]
MMC99% (C. albicans [2]): 12
MMC99% (E. coli [3]): 6
MMC99% (S. aureus [4]): 6

C-F-A-L-K-K-A-M-K-K-V-R (CFALKKAMKKVR) [SEQ. ID. NO. 96]
MMC99% (C. albicans [2]): 12
MMC99% (E. coli [3]): 6
MMC99% (S. aureus [4]): 12

F-Q-W-Q-R-N (FQWQRN) [Morinaga 10]
Concentration of agent for 100% killing (E. coli O14 [1]; [13]): >500 µg/mL
Concentration of agent for 100% killing (E. coli O14 [1]; E. coli O14, II: serial dilutions of twofold steps): 1000 µg/mL
Concentration of agent for 100% killing (Candida albicans; 5 · 10^3 yeast cells per ml): >2000 µg/mL
Concentration of agent for 100% killing (Candida albicans; 5 · 10^6 yeast cells per ml): >2000 µg/mL

KCFQWQRNMRKVRGPPVSCI [Morinaga 25] (KCFQWQRNMRKVRGPPVSCI) [reference compound]
Concentration of agent for 100% killing [6]: 6.2 µg/mL
Concentration of agent for inhibition of growth [6]: 6.2 µg/mL
Concentration of agent for 100% killing (E. coli O14 [7]): 12.5 µg/mL
Concentration of agent for inhibition of growth (E. coli O14 [7]): 3.1 µg/mL

Peptide 2: SEQ. ID. NO. 1 with X1 E, X2 A, X5 C, X7 Q, X11 N, X17-25 G-P-P-V-S-C-I-K-R; cysteines acetamidomethyl protected (Ac-EATKC(Acm)FQWQRNMRKVRGPPVSC(Acm)IKR-NH2)
Concentration of agent for 100% killing [6]: 6.2 µg/mL
Concentration of agent for inhibition of growth [6]: 6.2 µg/mL
Concentration of agent for 100% killing (E. coli O14 [7]): 25 µg/mL
Concentration of agent for inhibition of growth (E. coli O14 [7]): 6.2 µg/mL

C-F-Q-W-Nle-R-N-M-R-K-V-R (CFQW[Nle]RNMRKVR) [SEQ. ID. NO. 88]
MMC99% (C. albicans [8]): 6
MMC99% (E. coli [9]): 12
MMC99% (S. aureus [10]): 3.5
MMC99% (E. coli O6K5): 5
MMC99% (C. albicans [5]): 10

KCFQWQRNMRKVRGPPVSCI [Morinaga 24] (KCFQWQRNMRKVRGPPVSCI; also: cyclic peptide, ring type not given here) [reference compound]
Concentration of agent for 100% killing [6]: 12.5 µg/mL
Concentration of agent for inhibition of growth [6]: 12.5 µg/mL
Concentration of agent for 100% killing (E. coli O14 [7]): 25 µg/mL
Concentration of agent for inhibition of growth (E. coli O14 [7]): 6.2 µg/mL

C-F-Q-W-K-R-N-M-R-K-V-R (CFQWKRNMRKVR) [SEQ. ID. NO. 91]
MMC99% (C. albicans [2]): 6
MMC99% (E. coli [3]): 6
MMC99% (S. aureus [4]): 6
MMC99% (E. coli O6K5): 5
MMC99% (C. albicans [5]): 5

SEQ. ID. NO. 97: listed under the third and fourth embodiments; sequence only in the appended sequence listing (CFALKKAMKKVR)
MMC99% (C. albicans [2]): 12
MMC99% (E. coli [3]): 6
MMC99% (S. aureus [4]): 6

C-F-Q-L-Q-K-N-M-K-K-V-R (CFQLQKNMKKVR) [SEQ. ID. NO. 95]
MMC99% (C. albicans [2]): 12
MMC99% (E. coli [3]): 6
MMC99% (S. aureus [4]): 6

QPEATKCFQWQRNMRKVR [Peptide 33]
MIC (C. albicans (ATCC64549); ATCC64549): 10 µg/mL
MMC99% (C. albicans (ATCC64549); C. albicans, tested at 1, 10, 25 and 100 μg/ml of peptide): 100 µg/mL
MMC99% (E. coli O6; E. coli O6, tested at 1, 10, 25 and 100 μg/ml of peptide): 25 µg/mL
MIC (E. coli O6; O6): 10 µg/mL
C. albicans inhibition (OD650) ([11]; OD650 after an additional 18 hours): −
C. albicans killing: 99% ([11]; 2 hours): − (− = less than 100/99% of the bacteria are killed)
C. albicans killing: 100% ([11]; 2 hours): − (− = less than 100/99% of the bacteria are killed)
killing of bacteria: E. faecalis (E. faecalis): + (+ = 99% of the bacteria are killed)
killing of bacteria: S. epidermis (S. epidermis): + (+ = 99% of the bacteria are killed)
killing of bacteria: S. aureus (S. aureus [12]): + (+ = 99% of the bacteria are killed)
killing of bacteria: K. pneumoniae (K. pneumoniae): − (− = less than 99% of the bacteria are killed)
killing of bacteria: P. aeruginosa (P. aeruginosa): − (− = less than 99% of the bacteria are killed)

SEQ. ID. NO. 55: modification of SEQ. ID. NO. 7 wherein the Asp in position 9 is substituted with a Glu (TKAFKWQREMRKVR; lactam 5-9)
MMC99% (E. coli O6K5): 5
MMC99% (C. albicans [5]): 5

F-Q-W-Q-R [Morinaga 11]
Concentration of agent for 100% killing (E. coli O14 [1]; [13]): >500 µg/mL
Concentration of agent for 100% killing (Candida albicans; 5 · 10^3 yeast cells per ml): >2000 µg/mL
Concentration of agent for 100% killing (Candida albicans; 5 · 10^6 yeast cells per ml): >2000 µg/mL
